This note sets out measurements from patent publication US20120259008A1, “METHOD FOR TREATING ASTHENOPIA” (SUCAMPO AG, priority 2011, published 2012).

SMILES strings stand for the structures.

Common to all, as to assay type: in vivo, human
Assay [1] is described as follows: single administration of eye drop to a subject who had blurring of vision. To be noted: eye drop comprising 0.12%, after single administration, subject with blurring of vision. From the text:
A subject who had blurring of vision received eye drop comprising 0.12% isopropyl unoprostone. After single administration of it, eye discharge and blurry vision were improved. On the other hand, after single administration of placebo, eye discharge and blurry vision were not improved.

Assay [2] in a line: eye drop twice a day for seven days to a subject with presbyopia and astigmatism who was difficult to focus on the objects. Particulars: eye drop comprising 0.12% twice a day. From the text:
A subject who was difficult to focus on the objects even using the farsighted glasses received eye drop comprising 0.12% isopropyl unoprostone twice a day. They were presbyopia and astigmatism.

The nature of assay [3]: single administration of eye drop to a subject who had eye pain. To be noted: eye drop comprising 0.12%, after single administration, subject with eye pain. From the text: A subject who had eye pain received eye drop comprising 0.12% isopropyl unoprostonen. After single administration of it, eye pain was improved. On the other hand, after single administration of placebo, eye pain was not improved.

As to `CCCCCCCC(=O)CC[C@@H]1[C@@H](C/C=C\CCCC(=O)OC(C)C)[C@@H](O)C[C@H]1O` [isopropyl unoprostone, (+)-isopropyl (Z)-7-[(1R,2R,3R,5S)-3,5-dihydroxy-2-(3-oxodecyl)cyclopentyl]hept-5-enoate], in assay [1], the blurry vision result is “improved” and the eye discharge entry is “improved”. Besides, the “ability to focus on the objects (accommodative function)” value in assay [2] (after seven days administration, subject with presbyopia and astigmatism) was “able to focus on the objects easier and quicker than before the administration”. Besides, in assay [2] (seven days administration), the “duration of the improvement in focusing” value is given as “continued for three weeks”. In addition, in assay [3], the eye pain entry is given as “improved”.
